Values joined by “and” are separate entries in the source; they are usually repeats but may differ in a detail not shown here. Equal values may be shown once.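 Test compounds were applied to cells in 96-well plates for 48 hours at 5 doses. GI50 marks 50% less growth.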 Active and inactive are the calls of the source. Cut-off read from the data, not from the text of the source: active = GI50 up to about 1.1 µM and inactive = higher.
Tests used:
Assay in all cases: NCI-60 cell line screen, 48 h
OVCAR-5 = tested on: OVCAR-5
OVCAR-8 = tested on: OVCAR-8
KM12 = tested on: KM12
A498 = tested on: A498
SN12C = tested on: SN12C
NCI-H522 = tested on: NCI-H522
RXF 393 = tested on: RXF 393
PC-3 = tested on: PC-3
HL-60 = tested on: HL-60
HT-29 = tested on: HT-29
RPMI-8226 = tested on: RPMI-8226
COLO 205 = tested on: COLO 205
SW-620 = tested on: SW-620
Malme-3M = tested on: Malme-3M
HCC 2998 = tested on: HCC 2998
UO-31 = tested on: UO-31
MDA-MB-231 = tested on: MDA-MB-231
SNB-19 = tested on: SNB-19
SK-MEL-5 = tested on: SK-MEL-5

SMILES | GI50 (OVCAR-5) | GI50 (OVCAR-8) | GI50 (KM12) | GI50 (A498) | GI50 (SN12C) | GI50 (NCI-H522) | GI50 (RXF 393) | GI50 (PC-3) | GI50 (HL-60) | GI50 (HT-29) | GI50 (RPMI-8226) | GI50 (COLO 205) | GI50 (SW-620) | GI50 (Malme-3M) | GI50 (HCC 2998) | GI50 (UO-31) | GI50 (MDA-MB-231) | GI50 (SNB-19) | GI50 (SK-MEL-5)
COc1cc2c(cc1O)CC1c3c(cc(O)c(OC)c3-2)CCN1C (stereo not drawn) | > 100 µM (inactive) | > 100 µM (inactive) | > 100 µM (inactive) | > 100 µM (inactive) | > 100 µM (inactive) | 56.4 µM (inactive) | > 100 µM (inactive) | > 96.6 µM (inactive) | 91.4 µM (inactive) | 62.2 µM (inactive) | > 100 µM (inactive) | > 73.5 µM (inactive) | > 100 µM (inactive) | > 100 µM (inactive) | > 100 µM (inactive) | > 100 µM (inactive) | > 100 µM (inactive) | > 100 µM (inactive) | > 89.7 µM (inactive)
O=CCOCc1cc2c(cc1Br)OCO2 | > 100 µM (inactive) | 20.7 µM (inactive) | 33 µM (inactive) | > 100 µM (inactive) | 34.5 µM (inactive) | 15.7 µM (inactive) | 37 µM (inactive) | 21.4 µM (inactive) | 20.9 µM (inactive) | 19 µM (inactive) | 40.6 µM (inactive) | > 100 µM (inactive) | 20.9 µM (inactive) | – | > 100 µM (inactive) | 21.1 µM (inactive) | 19.7 µM (inactive) | – | 19.3 µM (inactive)
COc1cc2ccc1OCc1cccc(n1)COc1ccc(cc1OC)/C=N\c1ccc(cc1)/N=C\2 | > 100 µM (inactive) | > 100 µM (inactive) | > 100 µM (inactive) | > 100 µM (inactive) | > 100 µM (inactive) | > 100 µM (inactive) | > 100 µM (inactive) | > 100 µM (inactive) | > 100 µM (inactive) | > 100 µM (inactive) | – | > 100 µM (inactive) | > 100 µM (inactive) | > 100 µM (inactive) | > 100 µM (inactive) | > 100 µM (inactive) | > 100 µM (inactive) | > 100 µM (inactive) | > 100 µM (inactive)
CNc1nc(C(N)=O)c(N)s1 | > 100 µM (inactive) | > 100 µM (inactive) | > 100 µM (inactive) | > 100 µM (inactive) | > 100 µM (inactive) | > 100 µM (inactive) | > 100 µM (inactive) | > 100 µM (inactive) | > 100 µM (inactive) | > 100 µM (inactive) | > 100 µM (inactive) | > 100 µM (inactive) | > 100 µM (inactive) | > 100 µM (inactive) | – | > 100 µM (inactive) | > 100 µM (inactive) | > 100 µM (inactive) | 84.9 µM (inactive)
Oc1cc2c3c(c1)CCCN3CCC2 | > 10 µM (inactive) | > 10 µM (inactive) | > 10 µM (inactive) | > 10 µM (inactive) | > 10 µM (inactive) | > 10 µM (inactive) | > 10 µM (inactive) | > 10 µM (inactive) | > 10 µM (inactive) | > 10 µM (inactive) | > 10 µM (inactive) | > 10 µM (inactive) | > 10 µM (inactive) | > 10 µM (inactive) | > 10 µM (inactive) | – | > 10 µM (inactive) | > 10 µM (inactive) | > 10 µM (inactive)
CN(C)CCCNc1c2ccccc2[n+]([O-])c2ccccc12 | 38.8 µM (inactive) | 41.9 µM (inactive) | 39.3 µM (inactive) | 54.8 µM (inactive) | 46.1 µM (inactive) | 28.2 µM (inactive) | 47.8 µM (inactive) | 46.5 µM (inactive) | 51.8 µM (inactive) | 7.06 µM (inactive) | 46.7 µM (inactive) | 13.3 µM (inactive) | 39.9 µM (inactive) | 76.7 µM (inactive) | – | 34.5 µM (inactive) | 63.4 µM (inactive) | – | 40.1 µM (inactive)
C/C=C(\C)C(=O)OC1C(C)=C2C(C1OC(=O)CCCC)C(C)(OC(C)=O)CC(OC(=O)CCCC)C1(O)C2OC(=O)C1(C)O (stereo not drawn) | 2.21 µM (inactive) | 4.43 µM (inactive) | 0.776 µM (active) | 6.47 µM (inactive) | 2.59 µM (inactive) | 0.362 µM (active) | 0.598 µM (active) | 0.491 µM (active) | 0.0324 µM (active) | 0.736 µM (active) | 0.267 µM (active) | 0.891 µM (active) | 0.501 µM (active) | – | 3.24 µM (inactive) | 15.4 µM (inactive) | 0.625 µM (active) | 0.41 µM (active) | 1.73 µM (inactive)
CN1CCN(c2cc3[nH]c(-c4ccc(Cl)cc4)nc3cc2F)CC1 | 15.2 µM (inactive) | 26.9 µM (inactive) | 10.8 µM (inactive) | 18.2 µM (inactive) | 26.7 µM (inactive) | 15.6 µM (inactive) | 13.8 µM (inactive) | 16.8 µM (inactive) | > 10 µM (inactive) | – | 14.1 µM (inactive) | 18.2 µM (inactive) | 21.8 µM (inactive) | 10.5 µM (inactive) | 4.71 µM (inactive) | 7.1 µM (inactive) | 17.4 µM (inactive) | 21.3 µM (inactive) | 10.6 µM (inactive)
O=C1c2ccccc2C(=O)N1CC1(C(=O)O)NCCS1(=O)=O (stereo not drawn) | > 100 µM (inactive) | > 100 µM (inactive) | > 100 µM (inactive) | > 100 µM (inactive) | > 100 µM (inactive) | > 100 µM (inactive) | > 100 µM (inactive) | > 100 µM (inactive) | > 100 µM (inactive) | > 100 µM (inactive) | > 100 µM (inactive) | > 100 µM (inactive) | > 100 µM (inactive) | > 100 µM (inactive) | – | > 100 µM (inactive) | > 100 µM (inactive) | > 100 µM (inactive) | > 100 µM (inactive)
COc1ccc([C@@]23CCC(=O)C[C@@H]2N(C)CC3)cc1OC | > 100 µM (inactive) | > 100 µM (inactive) | > 100 µM (inactive) | > 100 µM (inactive) | – | > 100 µM (inactive) | > 100 µM (inactive) | > 100 µM (inactive) | > 100 µM (inactive) | > 100 µM (inactive) | > 100 µM (inactive) | > 100 µM (inactive) | > 100 µM (inactive) | > 100 µM (inactive) | > 100 µM (inactive) | > 100 µM (inactive) | > 100 µM (inactive) | > 100 µM (inactive) | > 100 µM (inactive)
Fc1ccc(NC(=S)SCc2ccc3c(c2)OCO3)cc1F | 11.1 µM (inactive) | 18.3 µM (inactive) | 25.5 µM (inactive) | 17.4 µM (inactive) | 16.3 µM (inactive) | 16.8 µM (inactive) | 15.5 µM (inactive) | 25.5 µM (inactive) | 16.7 µM (inactive) | 20.2 µM (inactive) | – | 18.9 µM (inactive) | 33 µM (inactive) | 24.4 µM (inactive) | 21.8 µM (inactive) | 17 µM (inactive) | 31.1 µM (inactive) | 16.6 µM (inactive) | 16 µM (inactive)
O=c1ccn(CC2(CO)CCC2)c(=O)[nH]1 | > 100 µM (inactive) | > 100 µM (inactive) | > 100 µM (inactive) | > 100 µM (inactive) | > 100 µM (inactive) | > 100 µM (inactive) | > 100 µM (inactive) | > 100 µM (inactive) | > 100 µM (inactive) | > 100 µM (inactive) | > 100 µM (inactive) | > 100 µM (inactive) | > 100 µM (inactive) | > 100 µM (inactive) | > 100 µM (inactive) | > 100 µM (inactive) | > 100 µM (inactive) | – | > 100 µM (inactive)
COc1ccc(-n2c(C)nc3ccc(NC4OCC(O)C(O)C4O)cc3c2=O)cc1 (stereo not drawn) | > 100 µM (inactive) | 23.3 µM (inactive) and 28.6 µM (inactive) | – | > 100 µM (inactive) | 38.1 µM (inactive) and 27.2 µM (inactive) | 24.6 µM (inactive) and 22.3 µM (inactive) | 22.7 µM (inactive) and 30.1 µM (inactive) | > 100 µM (inactive) | 26.4 µM (inactive) and 28.9 µM (inactive) | 24 µM (inactive) and 25.6 µM (inactive) | 26.5 µM (inactive) and 20 µM (inactive) | 42.6 µM (inactive) and 83 µM (inactive) | 27.1 µM (inactive) and 36.5 µM (inactive) | 57.7 µM (inactive) and 99.3 µM (inactive) | > 100 µM (inactive) | > 100 µM (inactive) | > 100 µM (inactive) | > 100 µM (inactive) | > 100 µM (inactive)
CN(C)C(c1ccccc1)C1COC2Cc3ccccc3C1O2 (stereo not drawn) | > 100 µM (inactive) | > 100 µM (inactive) | > 100 µM (inactive) | > 100 µM (inactive) | > 100 µM (inactive) | > 100 µM (inactive) | > 100 µM (inactive) | 99.3 µM (inactive) and 76.4 µM (inactive) | 65 µM (inactive) and 46.8 µM (inactive) | 47.5 µM (inactive) and 46.6 µM (inactive) | > 100 µM (inactive) and 91 µM (inactive) | > 100 µM (inactive) | – | > 100 µM (inactive) and 60.7 µM (inactive) | > 100 µM (inactive) | > 100 µM (inactive) | > 100 µM (inactive) | > 100 µM (inactive) | > 100 µM (inactive)
COC(=O)c1ccccc1/C=C1\Cc2ccc3c(c2C1=O)CCCC3 | > 100 µM (inactive) | > 100 µM (inactive) | > 100 µM (inactive) | > 100 µM (inactive) | > 100 µM (inactive) | > 100 µM (inactive) | – | > 100 µM (inactive) | > 10 µM (inactive) | > 100 µM (inactive) | > 100 µM (inactive) | > 100 µM (inactive) | > 100 µM (inactive) | > 100 µM (inactive) | > 100 µM (inactive) | > 100 µM (inactive) | > 100 µM (inactive) | > 100 µM (inactive) | –
